In PubChem BioAssay AID1259407 (Chemical Carcinogenesis Research Information System (CCRIS), 2018):
The source made the active and inactive calls. How the calls were made is not given here.

Tested on: CCRIS mutagenicity, Ames/micronucleus/aberration tests
Experiment: CCRIS mutagenicity studies
[1] = Test System: AMES SALMONELLA TYPHIMURIUM, Strain/Indicator: TA97, Metabolic Activation: NONE, Method: STANDARD PLATE
[2] = Test System: AMES SALMONELLA TYPHIMURIUM, Strain/Indicator: TA98, Metabolic Activation: NONE, Method: STANDARD PLATE
[3] = Test System: AMES SALMONELLA TYPHIMURIUM, Strain/Indicator: TA100, Metabolic Activation: NONE, Method: STANDARD PLATE
[4] = Test System: AMES SALMONELLA TYPHIMURIUM, Strain/Indicator: TA1535, Metabolic Activation: NONE, Method: STANDARD PLATE
[5] = Test System: AMES SALMONELLA TYPHIMURIUM, Strain/Indicator: TA1537, Metabolic Activation: NONE, Method: STANDARD PLATE
[6] = Test System: AMES SALMONELLA TYPHIMURIUM, Strain/Indicator: TA98, Metabolic Activation: NONE, Method: PREINCUBATION
[7] = Test System: AMES SALMONELLA TYPHIMURIUM, Strain/Indicator: TA100, Metabolic Activation: NONE, Method: PREINCUBATION
[8] = Test System: AMES SALMONELLA TYPHIMURIUM, Strain/Indicator: TA1535, Metabolic Activation: NONE, Method: PREINCUBATION
[9] = Test System: AMES SALMONELLA TYPHIMURIUM, Strain/Indicator: TA1537, Metabolic Activation: NONE, Method: PREINCUBATION
[10] = Test System: AMES SALMONELLA TYPHIMURIUM, Strain/Indicator: TA100, Metabolic Activation: RAT, LIVER, S-9, AROCLOR 1254, Method: STANDARD PLATE

CC1COCc2cc3c(cc21)C(C)(C)C(C)C3(C)C (stereo unspecified)
mutagenic call [1]: inactive; negative | mutagenic call (Test System: AMES SALMONELLA TYPHIMURIUM, Strain/Indicator: TA97, Metabolic Activation: RAT LIVER S-9, AROCLOR 1254, Method: STANDARD PLATE): inactive; negative | mutagenic call [2]: inactive; negative | mutagenic call (Test System: AMES SALMONELLA TYPHIMURIUM, Strain/Indicator: TA98, Metabolic Activation: RAT LIVER S-9,AROCLOR 1254, Method: STANDARD PLATE): inactive; negative | mutagenic call [3]: inactive; negative | mutagenic call (Test System: AMES SALMONELLA TYPHIMURIUM, Strain/Indicator: TA100, Metabolic Activation: RAT LIVER S-9, AROCLOR 1254, Method: STANDARD PLATE): inactive; negative | mutagenic call (Test System: AMES SALMONELLA TYPHIMURIUM, Strain/Indicator: TA102, Metabolic Activation: NONE, Method: STANDARD PLATE): inactive; negative | mutagenic call (Test System: AMES SALMONELLA TYPHIMURIUM, Strain/Indicator: TA102, Metabolic Activation: RAT LIVER S-9, AROCLOR 1254, Method: STANDARD PLATE): inactive; negative | mutagenic call [4]: inactive; negative | mutagenic call (Test System: AMES SALMONELLA TYPHIMURIUM, Strain/Indicator: TA1535, Metabolic Activation: RAT LIVER S-9, AROCLOR 1254, Method: STANDARD PLATE): inactive; negative | mutagenic call [5]: inactive; negative | mutagenic call (Test System: AMES SALMONELLA TYPHIMURIUM, Strain/Indicator: TA1537, Metabolic Activation: RAT LIVER S-9, AROCLOR 1254, Method: STANDARD PLATE): inactive; negative | mutagenic call (Test System: AMES SALMONELLA TYPHIMURIUM, Strain/Indicator: TA1538, Metabolic Activation: NONE, Method: STANDARD PLATE): inactive; negative | mutagenic call (Test System: AMES SALMONELLA TYPHIMURIUM, Strain/Indicator: TA1538, Metabolic Activation: RAT LIVER S-9, AROCLOR 1254, Method: STANDARD PLATE): inactive; negative | mutagenic call (Test System: ESCHERICHIA COLI, Strain/Indicator: WP2 UVR A, Metabolic Activation: NONE, Method: STANDARD PLATE): inactive; negative | mutagenic call (Test System: ESCHERICHIA COLI, Strain/Indicator: WP2 UVR A, Metabolic Activation: RAT LIVER S-9, AROCLOR 1254, Method: STANDARD PLATE): inactive; negative | mutagenic call (Test System: UDS RAT HEPATOCYTES, Metabolic Activation: NONE, Method: NET NUCLEAR GRAIN COUNT): inactive; negative

O=C(O)c1ccccc1-c1c2ccc(=O)cc-2oc2cc(O)ccc12
mutagenic call (End Point: IN VITRO CHROMOSOMAL ABERRATIONS, Test System: CHO-LB CELLS, Metabolic Activation: NONE): inactive; negative | mutagenic call (End Point: IN VITRO CHROMOSOMAL ABERRATIONS, Test System: CHO-LB CELLS, Metabolic Activation: RAT, LIVER, S-9, AROCLOR 1254): inactive; negative | mutagenic call (Test System: AMES SALMONELLA TYPHIMURIUM, Strain/Indicator: TA98, Metabolic Activation: HAMSTER, LIVER, S-9, AROCLOR 1254 (10%), Method: PREINCUBATION): inactive; negative | mutagenic call [6]: inactive; negative | mutagenic call (Test System: AMES SALMONELLA TYPHIMURIUM, Strain/Indicator: TA98, Metabolic Activation: RAT, LIVER, S-9, AROCLOR 1254 (10%), Method: PREINCUBATION): inactive; negative | mutagenic call (Test System: AMES SALMONELLA TYPHIMURIUM, Strain/Indicator: TA100, Metabolic Activation: HAMSTER, LIVER, S-9, AROCLOR 1254 (10%), Method: PREINCUBATION): inactive; negative | mutagenic call [7]: inactive; negative | mutagenic call (Test System: AMES SALMONELLA TYPHIMURIUM, Strain/Indicator: TA100, Metabolic Activation: RAT, LIVER, S-9, AROCLOR 1254 (10%), Method: PREINCUBATION): inactive; negative | mutagenic call (Test System: AMES SALMONELLA TYPHIMURIUM, Strain/Indicator: TA1535, Metabolic Activation: HAMSTER, LIVER, S-9, AROCLOR 1254 (10%), Method: PREINCUBATION): inactive; negative | mutagenic call [8]: inactive; negative | mutagenic call (Test System: AMES SALMONELLA TYPHIMURIUM, Strain/Indicator: TA1535, Metabolic Activation: RAT, LIVER, S-9, AROCLOR 1254 (10%), Method: PREINCUBATION): inactive; negative | mutagenic call (Test System: AMES SALMONELLA TYPHIMURIUM, Strain/Indicator: TA1537, Metabolic Activation: HAMSTER, LIVER, S-9, AROCLOR 1254 (10%), Method: PREINCUBATION): inactive; negative | mutagenic call [9]: inactive; negative | mutagenic call (Test System: AMES SALMONELLA TYPHIMURIUM, Strain/Indicator: TA1537, Metabolic Activation: RAT, LIVER, S-9, AROCLOR 1254 (10%), Method: PREINCUBATION): inactive; negative

CCCn1cc2c3c(cccc31)C1C[C@@H](C)CN(C#N)[C@@H]1C2 (stereo partly specified)
mutagenic call [10]: active; positive

O=c1c2ccccc2c(=O)c2c1ccc1c3ccc4c(=O)c5c(ccc6c7ccc8c(=O)c9ccccc9c(=O)c8c7[nH]c65)c(=O)c4c3[nH]c12
mutagenic call (Test System: Ames Salmonella typhimurium, Strain/Indicator: TA98, Metabolic Activation: None, Method: Preincubation): active; positive | mutagenic call (Test System: Ames Salmonella typhimurium, Strain/Indicator: TA100, Metabolic Activation: None, Method: Preincubation): inactive; negative | mutagenic call (Test System: Ames Salmonella typhimurium, Strain/Indicator: TA102, Metabolic Activation: None, Method: Preincubation): inactive; negative | mutagenic call (Test System: Ames Salmonella typhimurium, Strain/Indicator: TA1535, Metabolic Activation: None, Method: Preincubation): inactive; negative

c1ccc(-c2ccccc2)cc1
mutagenic call [1]: inactive; negative | mutagenic call (Test System: AMES SALMONELLA TYPHIMURIUM, Strain/Indicator: TA97, Metabolic Activation: RAT, LIVER, S-9, AROCLOR 1254, Method: STANDARD PLATE): inactive; negative | mutagenic call [6]: inactive; negative | mutagenic call [2]: inactive; negative | mutagenic call (Test System: AMES SALMONELLA TYPHIMURIUM, Strain/Indicator: TA98, Metabolic Activation: RAT LIVER S-9, PHENOBARBITAL AND BETA-NAPHTHOFLAVONE, Method: PREINCUBATION): inactive; negative | mutagenic call (Test System: AMES SALMONELLA TYPHIMURIUM, Strain/Indicator: TA98, Metabolic Activation: RAT, LIVER, S-9, AROCLOR 1254, Method: STANDARD PLATE): inactive; negative | mutagenic call [7]: inactive; negative | mutagenic call [3]: inactive; negative | mutagenic call (Test System: AMES SALMONELLA TYPHIMURIUM, Strain/Indicator: TA100, Metabolic Activation: RAT LIVER S-9, PHENOBARBITAL AND BETA-NAPHTHOFLAVONE, Method: PREINCUBATION): inactive; negative | mutagenic call [10]: inactive; negative | mutagenic call [8]: inactive; negative | mutagenic call [4]: inactive; negative | mutagenic call (Test System: AMES SALMONELLA TYPHIMURIUM, Strain/Indicator: TA1535, Metabolic Activation: RAT LIVER S-9, PHENOBARBITAL AND BETA-NAPHTHOFLAVONE, Method: PREINCUBATION): inactive; negative | mutagenic call (Test System: AMES SALMONELLA TYPHIMURIUM, Strain/Indicator: TA1535, Metabolic Activation: RAT, LIVER, S-9, AROCLOR 1254, Method: STANDARD PLATE): inactive; negative | mutagenic call [9]: inactive; negative | mutagenic call [5]: inactive; negative | mutagenic call (Test System: AMES SALMONELLA TYPHIMURIUM, Strain/Indicator: TA1537, Metabolic Activation: RAT LIVER S-9, PHENOBARBITAL AND BETA-NAPHTHOFLAVONE, Method: PREINCUBATION): inactive; negative | mutagenic call (Test System: AMES SALMONELLA TYPHIMURIUM, Strain/Indicator: TA1537, Metabolic Activation: RAT, LIVER, S-9, AROCLOR 1254, Method: STANDARD PLATE): inactive; negative | mutagenic call (Test System: E. COLI, Strain/Indicator: WP2, Metabolic Activation: NONE, Method: STANDARD PLATE): inactive; negative | mutagenic call (Test System: E. COLI, Strain/Indicator: WP2, Metabolic Activation: RAT, LIVER, S-9, AROCLOR 1254, Method: STANDARD PLATE): inactive; negative | mutagenic call (Test System: E.COLI, Strain/Indicator: WP2UVRA, Metabolic Activation: NONE, Method: PREINCUBATION): inactive; negative | mutagenic call (Test System: E.COLI, Strain/Indicator: WP2UVRA, Metabolic Activation: RAT LIVER S-9, PHENOBARBITAL AND BETA-NAPHTHOFLAVONE, Method: PREINCUBATION): inactive; negative | mutagenic call (Test System: MOUSE LYMPHOMA, Strain/Indicator: L5178Y (TK+/TK-), Metabolic Activation: NONE, Method: SUSPENSION/PLATE): active; positive | mutagenic call (Test System: MOUSE LYMPHOMA, Strain/Indicator: L5178Y (TK+/TK-), Metabolic Activation: RAT, LIVER, S-9, AROCLOR 1254, Method: SUSPENSION/PLATE): active; positive

CC(/C=C(/C#N)c1ccc(F)cc1)C(c1ccccc1)C(C#N)c1ccc(F)cc1 (stereo unspecified)
mutagenic call [3]: inactive; negative
